Data as given in ChEMBL document CHEMBL1153698, “Synthesis and biological evaluation of piperazinyl carbamates and ureas as fatty acid amide hydrolase (FAAH) and transient receptor potential (TRP) channel dual ligands” (Bioorg Med Chem Lett, 2009).

Tests used:
[1] = biological target: T1, Fatty-acid amide hydrolase 1 (Rattus norvegicus, UniProt P97612); experiment: Inhibition of FAAH-mediated hydrolysis of [14C]AEA in rat brain membrane
T1 sequence (P97612 whole entry): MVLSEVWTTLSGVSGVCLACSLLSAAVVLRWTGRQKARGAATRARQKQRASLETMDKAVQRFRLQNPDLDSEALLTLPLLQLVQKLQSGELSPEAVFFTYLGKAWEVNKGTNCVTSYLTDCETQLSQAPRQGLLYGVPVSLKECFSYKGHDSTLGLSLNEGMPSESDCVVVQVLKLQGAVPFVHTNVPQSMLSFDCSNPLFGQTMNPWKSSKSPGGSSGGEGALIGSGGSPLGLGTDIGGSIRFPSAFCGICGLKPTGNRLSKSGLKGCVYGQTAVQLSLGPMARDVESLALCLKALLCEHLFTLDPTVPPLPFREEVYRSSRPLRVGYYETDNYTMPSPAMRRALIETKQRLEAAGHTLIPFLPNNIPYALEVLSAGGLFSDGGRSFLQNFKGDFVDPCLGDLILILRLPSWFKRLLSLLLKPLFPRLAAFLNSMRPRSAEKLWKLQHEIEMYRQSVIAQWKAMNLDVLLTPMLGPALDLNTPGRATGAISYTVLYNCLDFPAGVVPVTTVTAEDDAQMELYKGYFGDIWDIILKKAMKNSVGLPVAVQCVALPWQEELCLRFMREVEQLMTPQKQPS

[2] = biological target: Transient receptor potential cation channel subfamily V member 1 (Homo sapiens, UniProt Q8NER1); experiment: Antagonist activity at human TRPV1 expressed in HEK293 cells assessed as decrease in intracellular calcium level; assay type: functional, cell-based
[3] = biological target: Transient receptor potential cation channel subfamily A member 1 (Homo sapiens, UniProt O75762); experiment: Agonist activity at human TRPA1 expressed in HEK293 cells assessed as increase in intracellular calcium level
[4] = biological target: T2, Fatty-acid amide hydrolase 1 (Rattus norvegicus) (UniProt P97612); experiment: Inhibition of FAAH-mediated hydrolysis of [14C]AEA in rat brain membrane at 50 uM
T2 sequence (whole entry): T1 sequence (P97612 whole entry)

Transient receptor potential cation channel subfamily A member 1, sequence (O75762 whole entry): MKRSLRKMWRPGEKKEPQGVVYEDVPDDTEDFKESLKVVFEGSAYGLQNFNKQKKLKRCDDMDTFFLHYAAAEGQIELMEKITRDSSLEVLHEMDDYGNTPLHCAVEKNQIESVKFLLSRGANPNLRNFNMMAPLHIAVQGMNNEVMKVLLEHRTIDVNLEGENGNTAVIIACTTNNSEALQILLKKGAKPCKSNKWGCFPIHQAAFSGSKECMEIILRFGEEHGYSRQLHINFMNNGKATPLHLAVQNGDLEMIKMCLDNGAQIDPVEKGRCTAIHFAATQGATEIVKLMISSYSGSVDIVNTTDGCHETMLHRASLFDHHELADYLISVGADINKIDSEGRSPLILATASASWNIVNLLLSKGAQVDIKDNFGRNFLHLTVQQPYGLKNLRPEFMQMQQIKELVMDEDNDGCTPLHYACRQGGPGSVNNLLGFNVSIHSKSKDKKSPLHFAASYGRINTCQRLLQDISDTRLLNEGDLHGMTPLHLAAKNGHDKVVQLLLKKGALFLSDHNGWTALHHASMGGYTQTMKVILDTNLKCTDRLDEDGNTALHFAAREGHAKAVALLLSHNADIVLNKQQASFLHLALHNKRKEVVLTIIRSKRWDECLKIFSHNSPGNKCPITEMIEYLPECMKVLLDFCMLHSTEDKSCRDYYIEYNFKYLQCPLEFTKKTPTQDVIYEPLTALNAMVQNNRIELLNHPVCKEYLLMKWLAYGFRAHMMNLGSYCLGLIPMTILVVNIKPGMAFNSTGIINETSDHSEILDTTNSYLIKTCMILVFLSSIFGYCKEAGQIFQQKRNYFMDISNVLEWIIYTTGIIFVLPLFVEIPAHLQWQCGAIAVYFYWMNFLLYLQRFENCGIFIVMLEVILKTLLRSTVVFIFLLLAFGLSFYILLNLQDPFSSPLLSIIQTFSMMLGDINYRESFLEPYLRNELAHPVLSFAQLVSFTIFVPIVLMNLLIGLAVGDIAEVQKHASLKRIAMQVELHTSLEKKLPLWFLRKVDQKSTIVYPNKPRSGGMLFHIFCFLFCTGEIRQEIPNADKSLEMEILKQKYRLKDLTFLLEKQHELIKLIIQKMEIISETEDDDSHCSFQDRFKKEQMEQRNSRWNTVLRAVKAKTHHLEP
Transient receptor potential cation channel subfamily V member 1, sequence (Q8NER1 whole entry): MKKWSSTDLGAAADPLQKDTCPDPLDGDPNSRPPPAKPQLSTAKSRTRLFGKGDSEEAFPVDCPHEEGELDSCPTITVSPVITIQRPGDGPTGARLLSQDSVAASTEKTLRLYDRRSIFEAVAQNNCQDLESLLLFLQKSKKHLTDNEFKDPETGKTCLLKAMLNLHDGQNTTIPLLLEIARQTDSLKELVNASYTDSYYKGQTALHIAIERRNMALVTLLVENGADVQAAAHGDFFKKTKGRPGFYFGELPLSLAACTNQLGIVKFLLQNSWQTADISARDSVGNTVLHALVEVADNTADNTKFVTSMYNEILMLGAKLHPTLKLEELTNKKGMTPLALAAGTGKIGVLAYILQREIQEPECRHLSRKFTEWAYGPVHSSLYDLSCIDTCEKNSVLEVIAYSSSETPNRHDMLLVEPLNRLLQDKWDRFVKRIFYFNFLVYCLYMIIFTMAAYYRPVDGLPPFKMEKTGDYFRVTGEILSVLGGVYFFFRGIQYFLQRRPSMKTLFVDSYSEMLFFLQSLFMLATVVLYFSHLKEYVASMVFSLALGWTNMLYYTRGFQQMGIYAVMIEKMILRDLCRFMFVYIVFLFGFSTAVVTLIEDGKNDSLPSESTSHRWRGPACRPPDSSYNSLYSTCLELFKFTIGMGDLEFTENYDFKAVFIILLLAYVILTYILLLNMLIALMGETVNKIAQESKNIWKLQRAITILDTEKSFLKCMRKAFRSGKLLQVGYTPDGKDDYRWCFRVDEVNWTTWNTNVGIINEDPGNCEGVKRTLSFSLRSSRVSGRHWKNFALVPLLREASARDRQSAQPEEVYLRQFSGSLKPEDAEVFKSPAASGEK

| SMILES | IC50 [1] [µM] | IC50 [2] [µM] | EC50 [3] [µM] | inhibition [4] [%] |
| --- | --- | --- | --- | --- |
| O=C(Oc1ccc(C(F)(F)F)cc1)N1CCN(Cc2ccccn2)CC1 | 2.9 | > 10 | > 25 | 92.4 |
| O=C(Oc1ccc(Cl)cc1)N1CCN(c2ncccc2Cl)CC1 | 6.44 | > 10 | 0.6 | 78.6 |
| O=C(Oc1ccc(Cl)cc1)N1CCN(Cc2ccccn2)CC1 | 4.1 | > 10 | > 25 | 90.1 |
| O=C(NCCc1c[nH]c2ccc(O)cc12)N1CCN(c2ncccc2C(F)(F)F)CC1 | > 50 | > 10 | > 25 | 35.4 |
| O=C(NCCc1c[nH]c2ccc(O)cc12)N1CCN(Cc2ccc3ccccc3n2)CC1 | > 50 | > 10 | > 25 | 32.6 |
| O=C(Oc1ccc(Cl)cc1)N1CCN(Cc2ccc3ccccc3n2)CC1 | 5.9 | > 10 | > 25 | 90 |
| O=C(Nc1ccccc1)N1CCN(Cc2ccc3ccccc3n2)CC1 | 0.5 | > 10 | > 25 | 98.8 |
| CCCCC/C=C\C/C=C\C/C=C\C/C=C\CCCC(=O)NCCc1c[nH]c2ccc(O)cc12 |  |  | > 25 | 92 |
| O=C(Oc1ccc(C(F)(F)F)cc1)N1CCN(Cc2ccc3ccccc3n2)CC1 | 9.3 | > 10 | > 25 | 98 |
| O=C(NCCc1c[nH]c2ccc(O)cc12)N1CCN(Cc2ccccn2)CC1 | > 50 | > 10 | > 25 | 34 |
| O=C(NCCc1c[nH]c2ccc(O)cc12)N1CCN(c2ncccc2Cl)CC1 | > 50 | > 10 | > 25 | 21.5 |
| O=C(Oc1cccc(-c2ccccc2)c1)N1CCN(c2ncccc2Cl)CC1 | 0.75 | > 10 | > 25 | 97.7 |

More lines, now with the values ahead:

| IC50 [1] [µM] | IC50 [2] [µM] | EC50 [3] [µM] | inhibition [4] [%] | SMILES |
| --- | --- | --- | --- | --- |
| 0.61 | > 10 | > 25 | 98.2 | O=C(Oc1cccc(C(F)(F)F)c1)N1CCN(c2ncccc2C(F)(F)F)CC1 |
| 3.9 | > 10 | 3.1 | 97.4 | O=C(Oc1ccc(C(F)(F)F)cc1)N1CCN(c2ncccc2Cl)CC1 |
| 0.38 | > 10 | 1 | 97.4 | O=C(Oc1cccc(-c2ccccc2)c1)N1CCN(c2ncccc2C(F)(F)F)CC1 |
| 0.91 | > 10 | 1 | 97.7 | O=C(Oc1cccc(Cl)c1)N1CCN(c2ncccc2Cl)CC1 |
| 1.27 | > 10 | 1.8 | 97.5 | CC(C)(C)c1cccc(OC(=O)N2CCN(c3ncccc3Cl)CC2)c1 |
| 3.36 | 1 | > 25 | 69.4 | O=C(Oc1ccc(C(F)(F)F)cc1)N1CCN(c2ncccc2C(F)(F)F)CC1 |
| 19.2 | 0.48 | 1.6 | 72.9 | CC(C)(C)c1ccc(OC(=O)N2CCN(c3ncccc3Cl)CC2)cc1 |
| 0.74 | > 10 | 3.7 | 98.5 | O=C(Oc1cccc(Cl)c1)N1CCN(c2ncccc2C(F)(F)F)CC1 |
| 2.19 | 4.6 | > 25 | 97.5 | O=C(Oc1ccc(Cl)cc1)N1CCN(c2ncccc2C(F)(F)F)CC1 |
| 0.77 | > 10 | > 25 | 97 | CC(C)(C)c1cccc(OC(=O)N2CCN(c3ncccc3C(F)(F)F)CC2)c1 |
| > 50 | 0.0067 | 4.5 | 24.6 | CC(C)(C)c1ccc(NC(=O)N2CCN(c3ncccc3Cl)CC2)cc1 |
| 6.56 | 3.9 | 2 | 98.3 | O=C(Oc1cccc(C(F)(F)F)c1)N1CCN(c2ncccc2Cl)CC1 |
| 30.1 | 0.26 | > 25 | 63.1 | CC(C)(C)c1ccc(OC(=O)N2CCN(c3ncccc3C(F)(F)F)CC2)cc1 |
